Test results reported in patent EP4707277A1, “NOVEL HETEROCYCLIC AMINE DERIVATIVES AND PHARMACEUTICAL COMPOSITION COMPRISING SAME” (Daewoong Pharmaceutical Co., Ltd., priority 2023, dated 2024).
Like-named read-outs stand apart in the source and are kept apart here.

Columns and labels:
[1] = molecular target: T1, BTK (Homo sapiens, UniProt Q06187); test: Inhibitory activity against BTK, ADP-Glo Kinase system (Promega); format: biochemical
T1 construct: purchased Signalchem B10-10H
Summary of the method: (§1)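 IC50 values were fitted from kinase reactions run for 1 h at 30°C with either 1 mM ATP or ATP at Km (10 µM for BTK, 25 µM for ITK). Reactions used 0.2 µg/µl poly(Glu4,Tyr1), recombinant human enzyme (BTK 10 ng, ITK 4 ng per reaction) in Tris pH 7.5 Mn/Mg buffer with 1% DMSO. ADP formed was read by ADP-Glo luminescence.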

[2] = molecular target: T2, ITK (Homo sapiens, UniProt Q08881); test: Inhibitory activity against ITK, ADP-Glo Kinase system (Promega); format: biochemical
T2 construct: purchased Signalchem I13-11G-10
T2 sequence (Q08881 1-620): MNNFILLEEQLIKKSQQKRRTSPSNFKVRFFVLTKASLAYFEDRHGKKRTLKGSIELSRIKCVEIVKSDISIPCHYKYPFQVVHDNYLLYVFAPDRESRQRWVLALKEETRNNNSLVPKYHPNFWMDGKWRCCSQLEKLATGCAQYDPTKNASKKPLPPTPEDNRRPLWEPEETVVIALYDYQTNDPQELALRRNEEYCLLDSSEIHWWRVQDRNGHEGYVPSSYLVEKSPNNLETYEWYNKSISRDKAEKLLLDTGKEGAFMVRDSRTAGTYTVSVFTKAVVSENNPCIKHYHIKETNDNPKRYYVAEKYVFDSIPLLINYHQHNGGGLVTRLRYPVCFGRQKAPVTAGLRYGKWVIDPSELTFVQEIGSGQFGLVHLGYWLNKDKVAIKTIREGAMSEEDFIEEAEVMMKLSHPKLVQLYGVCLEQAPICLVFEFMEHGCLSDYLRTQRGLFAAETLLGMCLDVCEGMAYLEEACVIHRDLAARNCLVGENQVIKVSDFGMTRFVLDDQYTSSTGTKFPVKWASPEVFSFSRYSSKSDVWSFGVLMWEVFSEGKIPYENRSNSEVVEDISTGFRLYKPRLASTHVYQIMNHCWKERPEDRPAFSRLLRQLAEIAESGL
Summary of the method: as §1

[3] = 1mM ATP, read-out: BTK IC50(nM) 1mM ATP
[4] = 1mM ATP, read-out: ITK IC50(nM) 1mM ATP
[5] = Km ATP (BTK: 10 uM), read-out: BTK IC50(nM) Km ATP
[6] = Km ATP (ITK: 25uM), read-out: ITK IC50(nM) Km ATP

T1 sequence (Q06187 whole entry): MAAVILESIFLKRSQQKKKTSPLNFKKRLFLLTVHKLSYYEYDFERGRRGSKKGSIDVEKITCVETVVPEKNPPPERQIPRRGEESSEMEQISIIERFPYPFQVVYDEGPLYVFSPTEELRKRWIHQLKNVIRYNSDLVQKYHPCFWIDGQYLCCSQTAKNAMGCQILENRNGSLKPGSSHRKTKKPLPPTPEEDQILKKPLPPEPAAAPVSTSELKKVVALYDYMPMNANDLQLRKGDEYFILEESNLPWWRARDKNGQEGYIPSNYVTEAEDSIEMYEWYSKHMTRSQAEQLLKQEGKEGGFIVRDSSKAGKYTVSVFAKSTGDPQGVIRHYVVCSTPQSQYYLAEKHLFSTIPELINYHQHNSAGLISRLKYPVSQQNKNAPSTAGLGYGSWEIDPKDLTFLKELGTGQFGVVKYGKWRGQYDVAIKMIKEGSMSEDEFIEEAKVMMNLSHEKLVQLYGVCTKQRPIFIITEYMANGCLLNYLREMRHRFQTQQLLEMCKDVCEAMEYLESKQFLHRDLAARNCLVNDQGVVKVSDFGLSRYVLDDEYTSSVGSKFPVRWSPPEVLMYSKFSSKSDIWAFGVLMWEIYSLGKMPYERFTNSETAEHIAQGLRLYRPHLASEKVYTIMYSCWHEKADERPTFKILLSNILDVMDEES

Structure (SMILES) | IC50 [1, 3] | IC50 [2, 4] | IC50 [1, 5] | IC50 [2, 6]
C=CC(=O)N1CC[C@H](Oc2nc(Nc3ncc(C)s3)cc3c2ccn3CCCC)C1 [Example 124, (S)-1-(3-((1-butyl-6-((5-methylthiazol-2-yl)amino)-1H-pyrrolo[3,2-c]pyridin-4-yl)oxy)pyrrolidin-1-yl)prop-2-en-1-one] | – | – | ≤ 20 nM | ≤ 20 nM
C=CC(=O)N1C[C@H](F)[C@H](Oc2nc(Nc3ccn(C)n3)cc3c2ccn3CC(C)C)C1 [Example 197, 1-((3S,4R)-3-fluoro-4-((1-isobutyl-6-((1-methyl-1H-pyrazol-3-yl)amino)-1H-pyrrolo[3,2-c]pyridin-4-yl)oxy)pyrrolidin-1-yl)prop-2-en-1-one] | > 500 nM | > 500 nM | – | –
C=CC(=O)N1CCCCC12CC(Oc1nc(Nc3ncc(C)s3)cc3c1ccn3CC(C)C)C2 (stereo not drawn) [Example 203, 1-(2-((1-isobutyl-6-((5-methylthiazol-2-yl)amino)-1H-pyrrolo[3,2-c]pyridin-4-yl)oxy)-5-azaspiro[3.5]nonan-5-yl)prop-2-en-1-one] | > 500 nM | > 500 nM | – | –
C=CC(=O)N1C[C@@H](F)[C@@H](Oc2nc(Nc3ncc(C)s3)cc3c2ccn3CC(C)C)C1 [Example 135, 1-((3R,4S)-3-fluoro-4-((1-isobutyl-6-((5-methylthiazol-2-yl)amino)-1H-pyrrolo[3,2-c]pyridin-4-yl)oxy)pyrrolidin-1-yl)prop-2-en-1-one] | > 500 nM | > 500 nM | – | –
C=CC(=O)Nc1cccc(-c2nc(Nc3ncc(C)s3)cc3c2ccn3C)c1 [Example 50, N-(3-(1-methyl-6-((5-methylthiazol-2-yl)amino)-1H-pyrrolo[3,2-c]pyridin-4-yl)phenyl)acrylamide] | – | – | ≤ 20 nM | 20 to 100 nM
C=CC(=O)N1C2C=C(c3nc(Nc4ncc(C)s4)cc4c3ccn4C3CC3(F)F)CC1CC2 (stereo not drawn) [Example 31, 1-(3-(1-(2,2-difluorocyclopropyl)-6-((5-methylthiazol-2-yl)amino)-1H-pyrrolo[3,2-c]pyridin-4-yl)-8-azabicyclo[3.2.1]oct-2-en-8-yl)prop-2-en-1-one] | – | – | ≤ 20 nM | ≤ 20 nM
C=CC(=O)N1CC(C)(Oc2nc(Nc3ncc(C)s3)cc3c2ccn3CCOC)C1 [Example 168, 1-(3-((1-(2-methoxyethyl)-6-((5-methylthiazol-2-yl)amino)-1H-pyrrolo[3,2-c]pyridin-4-yl)oxy)-3-methylazetidin-1-yl)prop-2-en-1-one] | > 500 nM | > 500 nM | – | –
C=CC(=O)N1CC[C@@H](Oc2nc(Nc3ncc(C)s3)cc3c2ccn3C2CCCC2)C1 [Example 143, (R)-1-(3-((1-cyclopentyl-6-((5-methylthiazol-2-yl)amino)-1H-pyrrolo[3,2-c]pyridin-4-yl)oxy)pyrrolidin-1-yl)prop-2-en-1-one] | > 500 nM | > 500 nM | – | –
C=CC(=O)Nc1ccc(F)c(-c2nc(Nc3ncc(C)s3)cc3c2ccn3CC2CC2)c1 [Example 61, N-(3-(1-(cyclopropylmethyl)-6-((5-methylthiazol-2-yl)amino)-1H-pyrrolo[3,2-c]pyridin-4-yl)-4-fluorophenyl)acrylamide] | – | – | ≤ 20 nM | ≤ 20 nM
C=CC(=O)Nc1cc(-c2nc(Nc3ncc(C)s3)cc3c2ccn3CC(F)F)ccc1F [Example 76, N-(5-(1-(2,2-difluoroethyl)-6-((5-methylthiazol-2-yl)amino)-1H-pyrrolo[3,2-c]pyridin-4-yl)-2-fluorophenyl)acrylamide] | – | – | ≤ 20 nM | 20 to 100 nM

Continued, values first:

IC50 [1, 3] | IC50 [2, 4] | IC50 [1, 5] | IC50 [2, 6] | Structure (SMILES)
≤ 20 nM | ≤ 20 nM | – | – | C=CC(=O)N1C[C@H](F)[C@H](Oc2nc(Nc3ncc(C)s3)cc3c2ccn3CCCF)C1 [Example 191, 1-((3S,4R)-3-fluoro-4-((1-(3-fluoropropyl)-6-((5-methylthiazol-2-yl)amino)-1H-pyrrolo[3,2-c]pyridin-4-yl)oxy)pyrrolidin-1-yl)prop-2-en-1-one]
≤ 20 nM | ≤ 20 nM | – | – | C=CC(=O)N1C[C@@H](F)[C@H](Oc2nc(Nc3ncc(C)s3)cc3c2ccn3C[C@@H](C)CC)C1 [Example 175, 1-((3R,4R)-3-fluoro-4-((1-((S)-2-methylbutyl)-6-((5-methylthiazol-2-yl)amino)-1H-pyrrolo[3,2-c]pyridin-4-yl)oxy)pyrrolidin-1-yl)prop-2-en-1-one]
20 to 100 nM | 20 to 100 nM | – | – | C=CC(=O)N1CC[C@H](Oc2nc(Nc3cc(C)ncn3)cc3c2ccn3CC(C)C)C1 [Example 104, (S)-1-(3-((1-isobutyl-6-((6-methylpyrimidin-4-yl)amino)-1H-pyrrolo[3,2-c]pyridin-4-yl)oxy)pyrrolidin-1-yl)prop-2-en-1-one]
≤ 20 nM | ≤ 20 nM | – | – | C=CC(=O)N1CCC1COc1nc(Nc2ncc(C)s2)cc2c1ccn2C1CCCC1 (stereo not drawn) [Example 218, 1-(2-(((1-cyclopentyl-6-((5-methylthiazol-2-yl)amino)-1H-pyrrolo[3,2-c]pyridin-4-yl)oxy)methyl)azetidin-1-yl)prop-2-en-1-one]
≤ 20 nM | 20 to 100 nM | – | – | C=CC(=O)Nc1cccc(-c2nc(Nc3ncc(C)s3)cc3c2ccn3CC(C)C)c1C [Example 62, N-(3-(1-isobutyl-6-((5-methylthiazol-2-yl)amino)-1H-pyrrolo[3,2-c]pyridin-4-yl)-2-methylphenyl)acrylamide]
≤ 20 nM | 20 to 100 nM | – | – | C=CC(=O)N1CCC[C@H](Oc2nc(Nc3ncc(C)s3)cc3c2ccn3CC(C)C)C1 [Example 150, (S)-1-(3-((1-isobutyl-6-((5-methylthiazol-2-yl)amino)-1H-pyrrolo[3,2-c]pyridin-4-yl)oxy)piperidin-1-yl)prop-2-en-1-one]
> 500 nM | > 500 nM | – | – | C=CC(=O)N1CC[C@H](Oc2nc(Nc3nccnc3OC)cc3c2ccn3C(C)C)C1 [Example 184, (S)-1-(3-((1-isopropyl-6-((3-methoxypyrazin-2-yl)amino)-1H-pyrrolo[3,2-c]pyridin-4-yl)oxy)pyrrolidin-1-yl)prop-2-en-1-one]
> 500 nM | > 500 nM | – | – | C=CC(=O)N1CC[C@@H](Oc2nc(Nc3ncc(C)s3)cc3c2ccn3C)C1 [Example 156, (R)-1-(3-((1-methyl-6-((5-methylthiazol-2-yl)amino)-1H-pyrrolo[3,2-c]pyridin-4-yl)oxy)pyrrolidin-1-yl)prop-2-en-1-one]
≤ 20 nM | ≤ 20 nM | – | – | C=CC(=O)N1CC(Oc2nc(Nc3ncc(C)s3)cc3c2ccn3C2CCCC2)C1 [Example 142, 1-(3-((1-cyclopentyl-6-((5-methylthiazol-2-yl)amino)-1H-pyrrolo[3,2-c]pyridin-4-yl)oxy)azetidin-1-yl)prop-2-en-1-one]
≤ 20 nM | > 500 nM | ≤ 20 nM | ≤ 20 nM | C=CC(=O)Nc1c(C)ccc(-c2nc(Nc3ncc(C)s3)cc3c2ccn3C)c1C [Example 56, N-(2,6-dimethyl-3-(1-methyl-6-((5-methylthiazol-2-yl)amino)-1H-pyrrolo[3,2-c]pyridin-4-yl)phenyl)acrylamide]
≤ 20 nM | ≤ 20 nM | – | – | C=CC(=O)N1C[C@H](F)[C@H](Oc2nc(Nc3ncc(C)s3)cc3c2ccn3CC(C)CC)C1 (stereo partly drawn) [Example 171, 1-((3S,4R)-3-fluoro-4-((1-(2-methylbutyl)-6-((5-methylthiazol-2-yl)amino)-1H-pyrrolo[3,2-c]pyridin-4-yl)oxy)pyrrolidin-1-yl)prop-2-en-1-one]
20 to 100 nM | > 500 nM | – | – | C=CC(=O)N1CCC[C@H]1COc1nc(Nc2ncc(C)s2)cc2c1ccn2C(C)C [Example 219, (S)-1-(2-(((1-isopropyl-6-((5-methylthiazol-2-yl)amino)-1H-pyrrolo[3,2-c]pyridin-4-yl)oxy)methyl)pyrrolidin-1-yl)prop-2-en-1-one]
≤ 20 nM | ≤ 20 nM | – | – | C#CC(=O)N1C[C@H](F)[C@H](Oc2nc(Nc3ncc(C)s3)cc3c2ccn3CC(C)C)C1 [Example 231, 1-((3S,4R)-3-fluoro-4-((1-isobutyl-6-((5-methylthiazol-2-yl)amino)-1H-pyrrolo[3,2-c]pyridin-4-yl)oxy)pyrrolidin-1-yl)prop-2-yn-1-one]
≤ 20 nM | ≤ 20 nM | ≤ 20 nM | ≤ 20 nM | C=CC(=O)N1CC=C(c2nc(Nc3ncc(C)s3)cc3c2ccn3CC(F)F)CC1 [Example 12, 1-(4-(1-(2,2-difluoroethyl)-6-((5-methylthiazol-2-yl)amino)-1H-pyrrolo[3,2-c]pyridin-4-yl)-3,6-dihydropyridin-1(2H)-yl)prop-2-en-1-one]
≤ 20 nM | ≤ 20 nM | – | – | C=CC(=O)N1C2C=C(c3nc(Nc4ncc(C)s4)cc4c3ccn4C)CC1CCC2 (stereo not drawn) [Example 36, 1-(3-(1-methyl-6-((5-methylthiazol-2-yl)amino)-1H-pyrrolo[3,2-c]pyridin-4-yl)-9-azabicyclo[3.3.1]non-2-en-9-yl)prop-2-en-1-one]
